One block for each compound: values may come before it. Calls of active or inactive are those of the source. No cut-off for these calls is given here.
Key:
[1] = molecular target: T1, C-C chemokine receptor type 2 (Homo sapiens, UniProt P41597); assay: Displacement of [125]hMCP1 from human CCR2 receptor expressed in human monocytes at 1 uM; format: cell-based
Target sequence in this assay (P41597 whole entry, looked up): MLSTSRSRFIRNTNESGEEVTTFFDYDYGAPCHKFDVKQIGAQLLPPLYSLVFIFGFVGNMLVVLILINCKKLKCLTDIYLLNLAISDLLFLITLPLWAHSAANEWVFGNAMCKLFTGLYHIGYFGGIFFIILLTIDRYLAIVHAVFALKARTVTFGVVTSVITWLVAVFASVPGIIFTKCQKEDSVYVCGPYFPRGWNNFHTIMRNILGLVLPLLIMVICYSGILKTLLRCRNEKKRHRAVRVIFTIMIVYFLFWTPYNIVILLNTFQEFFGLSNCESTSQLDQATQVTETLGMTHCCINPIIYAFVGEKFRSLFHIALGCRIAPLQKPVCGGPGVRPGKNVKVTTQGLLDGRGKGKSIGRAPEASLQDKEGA

[2] = molecular target: T1, C-C chemokine receptor type 2; assay: Displacement of [125]hMCP1 from human CCR2 receptor expressed in human monocytes; format: cell-based
[3] = molecular target: C-C chemokine receptor type 2 (Mus musculus) (UniProt P51683); assay: (§1) Displacement of [125]hMCP1 from mouse CCR2 receptor expressed in CHO cells; format: cell-based
[4] = Volume of distribution in rat; format: ADME, organism-based; conditions: in vivo, read-out: Vss
[5] = Plasma clearance in rat; format: ADME, organism-based
[6] = molecular target: C-C chemokine receptor type 2 (Mus musculus, UniProt P51683); assay: as §1; format: cell-based
[7] = Half life in rat; format: ADME, organism-based; conditions: in vivo
[8] = Oral bioavailability in rat; format: ADME, organism-based; conditions: in vivo
[9] = molecular target: C-C chemokine receptor type 5 (Homo sapiens, UniProt P51681); assay: Displacement of MIP1alpha from CCR5 receptor
[10] = molecular target: T1, C-C chemokine receptor type 2; assay: Antagonist activity against human CCR2 receptor assessed as inhibition of MCP1-induced calcium flux in human monocytes; format: functional, cell-based
Target sequence in this assay (P41597 whole entry): as the sequence (P41597 whole entry, looked up) above

[11] = molecular target: C-C chemokine receptor type 2 (Mus musculus) (UniProt P51683); assay: Displacement of [125]hMCP1 from mouse CCR2 receptor expressed in CHO cells at 1 uM; format: cell-based

Chain of C-C chemokine receptor type 2 (Mus musculus) (P51683 whole entry, looked up): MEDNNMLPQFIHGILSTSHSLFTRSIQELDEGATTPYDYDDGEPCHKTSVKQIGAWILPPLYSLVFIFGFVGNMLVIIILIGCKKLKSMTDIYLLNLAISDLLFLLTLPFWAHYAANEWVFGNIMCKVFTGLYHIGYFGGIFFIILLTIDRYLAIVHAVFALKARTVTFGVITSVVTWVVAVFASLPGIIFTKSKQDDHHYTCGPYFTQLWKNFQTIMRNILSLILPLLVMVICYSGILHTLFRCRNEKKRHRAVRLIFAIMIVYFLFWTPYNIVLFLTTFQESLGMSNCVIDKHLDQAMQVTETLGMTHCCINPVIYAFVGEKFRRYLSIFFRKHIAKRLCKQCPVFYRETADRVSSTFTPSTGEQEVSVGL
Chain of C-C chemokine receptor type 5 (P51681 whole entry): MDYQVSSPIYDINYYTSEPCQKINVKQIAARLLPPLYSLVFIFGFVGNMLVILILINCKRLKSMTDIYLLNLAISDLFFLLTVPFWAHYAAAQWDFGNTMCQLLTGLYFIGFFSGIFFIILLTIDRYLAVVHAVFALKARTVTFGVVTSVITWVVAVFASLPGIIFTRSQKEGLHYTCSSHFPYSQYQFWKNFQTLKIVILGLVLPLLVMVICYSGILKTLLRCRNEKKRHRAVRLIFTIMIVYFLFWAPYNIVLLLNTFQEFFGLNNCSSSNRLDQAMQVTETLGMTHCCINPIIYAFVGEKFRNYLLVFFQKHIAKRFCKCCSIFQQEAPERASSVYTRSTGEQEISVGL
Chain of C-C chemokine receptor type 2 (Mus musculus, UniProt P51683) (P51683 whole entry): as the sequence (P51683 whole entry, looked up) above

Activity [1]: 23%
Compound: O=C(NCc1cc(C(F)(F)F)cc(C(F)(F)F)c1)C1CCCC(N2CCC(c3ccccc3)CC2)C1 (centres undefined)

IC50 [2]: > 1000 nM
Activity [3]: inactive
Compound: CC1C[C@@H](N2CC[C@@]3(C=Cc4ccccc43)[C@@H](C)C2)C[C@H]1C(=O)NCc1cc(C(F)(F)F)cc(C(F)(F)F)c1 (some centres undefined)

Vd [4]: 6 L/kg
IC50 [2]: 1.3 nM
clearance [5]: 50 mL/min/kg
IC50 [6]: 130 nM
half-life [7]: 8.1 h
bioavailability [8]: 15%
IC50 [9]: 630 nM
Compound: C[C@H]1CN([C@@H]2CC[C@](C)(C(=O)NCc3cc(C(F)(F)F)cc(C(F)(F)F)c3)C2)CC[C@@]12C=Cc1ccccc12

IC50 [2]: 1.4 nM
IC50 [10]: 2.3 nM
Activity [11]: 27%
Compound: C[C@H]1CN([C@@H]2CC[C@H](C(=O)NCc3cc(C(F)(F)F)cc(C(F)(F)F)c3)C2)CC[C@@]12C=Cc1ccccc12

Activity [2]: inactive
Compound: O=C1C(CCN2CCC(c3ccccc3)CC2)CCCN1Cc1cc(C(F)(F)F)cc(C(F)(F)F)c1 (centres undefined)

IC50 [2]: 65 nM
Compound: O=C(NCc1cc(C(F)(F)F)cc(C(F)(F)F)c1)C1CCC(N2CCC(c3ccccc3)CC2)C1 (centres undefined)

Activity [1]: 25%
Compound: O=C(NCc1cc(C(F)(F)F)cc(C(F)(F)F)c1)[C@@H]1CC[C@@H](N2CCC(c3ccccc3)CC2)C1

IC50 [2]: 47 nM
Activity [11]: 27%
Compound: C[C@]1(C(=O)NCc2cc(C(F)(F)F)cc(C(F)(F)F)c2)CC[C@@H](N2CCC3(C=Cc4ccccc43)CC2)C1

IC50 [2]: 7.5 nM
Activity [3]: inactive
Compound: O=C(NCc1cc(C(F)(F)F)cc(C(F)(F)F)c1)[C@H]1CC[C@@H](N2CCC3(C=Cc4ccccc43)CC2)C1

Activity [2]: inactive
Compound: O=C1C(CCN2CCC(c3ccccc3)CC2)CCN1Cc1cc(C(F)(F)F)cc(C(F)(F)F)c1 (centres undefined)

IC50 [2]: 36 nM
Compound: O=C(NCc1cc(C(F)(F)F)cc(C(F)(F)F)c1)[C@H]1CC[C@@H](N2CCC(c3ccccc3)CC2)C1

Activity [1]: 44%
Compound: O=C(NCc1cc(C(F)(F)F)cc(C(F)(F)F)c1)[C@H]1CC[C@H](N2CCC(c3ccccc3)CC2)C1

Activity [1]: 30%
Compound: O=C(NCc1cc(C(F)(F)F)cc(C(F)(F)F)c1)[C@@H]1CC[C@H](N2CCC(c3ccccc3)CC2)C1

Reference: ChEMBL document CHEMBL1143063, “Discovery of 3-piperidinyl-1-cyclopentanecarboxamide as a novel scaffold for highly potent CC chemokine receptor 2 antagonists” (J Med Chem, 2007)
